From ChEMBL document CHEMBL5500385, “Macrocyclization strategy for improving candidate profiles in medicinal chemistry” (Eur J Med Chem, 2024)
Values belong to the compound of their own block, whether it stands above or below them.

Tests used:
[1] = molecular target: T1, Muscleblind-like protein 1 (Homo sapiens, UniProt Q9NR56)
T1 sequence (Q9NR56 whole entry): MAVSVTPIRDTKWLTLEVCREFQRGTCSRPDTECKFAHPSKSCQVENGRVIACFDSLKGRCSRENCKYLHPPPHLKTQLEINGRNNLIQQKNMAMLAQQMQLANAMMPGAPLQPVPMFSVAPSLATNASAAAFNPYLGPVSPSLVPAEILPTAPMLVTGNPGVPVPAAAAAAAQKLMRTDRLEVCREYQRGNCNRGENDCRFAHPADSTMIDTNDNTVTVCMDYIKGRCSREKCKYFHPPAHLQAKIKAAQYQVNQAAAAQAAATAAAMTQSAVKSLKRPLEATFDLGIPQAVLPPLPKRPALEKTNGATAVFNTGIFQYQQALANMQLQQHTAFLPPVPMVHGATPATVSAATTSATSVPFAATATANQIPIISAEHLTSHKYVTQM
Description: Binding affinity to MBNL1 (unknown origin) (1 to 272 residues) assessed as dissociation constant

[2] = molecular target: T2, Peptidyl-prolyl cis-trans isomerase FKBP4 (Homo sapiens, UniProt Q02790)
T2 sequence (Q02790 whole entry): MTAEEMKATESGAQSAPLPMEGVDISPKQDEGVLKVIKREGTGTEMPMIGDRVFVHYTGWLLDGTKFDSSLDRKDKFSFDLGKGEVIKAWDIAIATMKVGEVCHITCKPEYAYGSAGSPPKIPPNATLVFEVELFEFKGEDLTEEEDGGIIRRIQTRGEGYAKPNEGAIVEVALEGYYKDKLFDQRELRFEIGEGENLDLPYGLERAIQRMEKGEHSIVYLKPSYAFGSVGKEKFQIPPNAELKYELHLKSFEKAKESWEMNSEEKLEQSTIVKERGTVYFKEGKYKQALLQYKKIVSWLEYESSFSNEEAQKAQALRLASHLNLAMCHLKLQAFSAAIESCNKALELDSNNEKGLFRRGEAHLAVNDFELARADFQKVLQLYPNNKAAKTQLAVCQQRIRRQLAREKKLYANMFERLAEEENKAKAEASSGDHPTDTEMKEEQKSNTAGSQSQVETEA
Description: Binding affinity to FKBP52 (unknown origin) assessed as inhibition constant by fluorescence polarization assay

[3] = molecular target: T2, Peptidyl-prolyl cis-trans isomerase FKBP4; remark: listed apart in the source
Description: Binding affinity to FKBP52 (unknown origin) assessed as dissociation constant by fluorescence polarization assay

ATP-citrate synthase [4] = molecular target: T3, ATP-citrate synthase (Homo sapiens, UniProt P53396)
T3 sequence (P53396 whole entry): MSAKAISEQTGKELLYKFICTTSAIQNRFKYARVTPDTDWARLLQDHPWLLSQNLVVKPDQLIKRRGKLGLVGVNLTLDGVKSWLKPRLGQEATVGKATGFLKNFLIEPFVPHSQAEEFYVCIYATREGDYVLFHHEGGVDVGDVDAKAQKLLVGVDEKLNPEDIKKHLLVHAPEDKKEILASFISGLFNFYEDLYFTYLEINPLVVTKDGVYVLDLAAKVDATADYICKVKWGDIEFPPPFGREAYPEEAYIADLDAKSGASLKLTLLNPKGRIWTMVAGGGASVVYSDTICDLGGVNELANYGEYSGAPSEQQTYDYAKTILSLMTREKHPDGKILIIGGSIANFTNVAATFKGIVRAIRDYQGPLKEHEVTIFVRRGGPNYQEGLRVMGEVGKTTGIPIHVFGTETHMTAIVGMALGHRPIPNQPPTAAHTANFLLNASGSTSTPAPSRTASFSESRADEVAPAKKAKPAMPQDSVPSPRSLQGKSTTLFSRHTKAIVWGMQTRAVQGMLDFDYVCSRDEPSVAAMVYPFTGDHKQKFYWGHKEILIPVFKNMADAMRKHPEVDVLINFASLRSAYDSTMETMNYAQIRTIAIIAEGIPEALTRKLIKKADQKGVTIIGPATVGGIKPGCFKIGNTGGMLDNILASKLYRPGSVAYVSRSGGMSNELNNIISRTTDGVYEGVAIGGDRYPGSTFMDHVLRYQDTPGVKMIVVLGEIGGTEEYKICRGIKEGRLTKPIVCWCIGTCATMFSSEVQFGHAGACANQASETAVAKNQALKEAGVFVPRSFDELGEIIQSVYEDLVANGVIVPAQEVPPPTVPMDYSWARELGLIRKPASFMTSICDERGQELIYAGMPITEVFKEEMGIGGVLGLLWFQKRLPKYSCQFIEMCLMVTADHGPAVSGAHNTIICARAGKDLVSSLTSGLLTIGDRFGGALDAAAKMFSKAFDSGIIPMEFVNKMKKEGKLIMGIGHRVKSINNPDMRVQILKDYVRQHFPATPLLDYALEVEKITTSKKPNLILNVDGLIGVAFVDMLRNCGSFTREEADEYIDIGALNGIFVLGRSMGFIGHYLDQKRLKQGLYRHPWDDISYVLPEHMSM
Description: Inhibition of ATP citrate lyase (unknown origin)

ATP-citrate synthase [5] = molecular target: T3, ATP-citrate synthase; remark: listed apart in the source
Description: Binding affinity to ATP citrate lyase (unknown origin) assessed as dissociation constant

in vitro = conditions: human, liver microsomes
[6] = molecular target: Tyrosine-protein kinase JAK2 (Homo sapiens, UniProt O60674)
Description: Inhibition of JAK2 (unknown origin)

HEL = assay: cells; conditions: Homo sapiens
Description: Antiproliferative activity against human HEL cells assessed as reduction in cell growth

SET-2 = assay: cells; conditions: Homo sapiens
Description: Antiproliferative activity against human SET2 cells assessed as reduction in cell viability

Plasminogen = Plasminogen (Homo sapiens, UniProt P00747)
Description: Binding affinity to plasmin (unknown origin) assessed as inhibition constant

Prothrombin = Prothrombin (Homo sapiens, UniProt P00734)
Description: Binding affinity to thrombin (unknown origin) assessed as inhibition constant

[7] = molecular target: Calcitonin gene-related peptide type 1 receptor (Homo sapiens, UniProt O60894+Q16602)
Sequence of Calcitonin gene-related peptide type 1 receptor (Q16602 whole entry, one chain of several): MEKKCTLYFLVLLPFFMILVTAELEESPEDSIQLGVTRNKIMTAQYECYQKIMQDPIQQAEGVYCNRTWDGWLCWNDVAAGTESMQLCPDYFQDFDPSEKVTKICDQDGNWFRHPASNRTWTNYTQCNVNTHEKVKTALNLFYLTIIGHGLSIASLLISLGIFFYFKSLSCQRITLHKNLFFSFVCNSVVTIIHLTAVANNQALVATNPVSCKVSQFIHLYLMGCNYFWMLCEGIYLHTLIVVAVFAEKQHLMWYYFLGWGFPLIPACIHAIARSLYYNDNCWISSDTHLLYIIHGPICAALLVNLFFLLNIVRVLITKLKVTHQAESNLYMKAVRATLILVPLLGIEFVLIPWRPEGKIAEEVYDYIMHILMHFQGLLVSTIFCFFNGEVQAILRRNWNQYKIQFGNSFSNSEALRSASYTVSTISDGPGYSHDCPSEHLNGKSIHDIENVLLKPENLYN
Description: Inhibition of CGRP (unknown origin)

Sequence of Tyrosine-protein kinase JAK2 (O60674 whole entry): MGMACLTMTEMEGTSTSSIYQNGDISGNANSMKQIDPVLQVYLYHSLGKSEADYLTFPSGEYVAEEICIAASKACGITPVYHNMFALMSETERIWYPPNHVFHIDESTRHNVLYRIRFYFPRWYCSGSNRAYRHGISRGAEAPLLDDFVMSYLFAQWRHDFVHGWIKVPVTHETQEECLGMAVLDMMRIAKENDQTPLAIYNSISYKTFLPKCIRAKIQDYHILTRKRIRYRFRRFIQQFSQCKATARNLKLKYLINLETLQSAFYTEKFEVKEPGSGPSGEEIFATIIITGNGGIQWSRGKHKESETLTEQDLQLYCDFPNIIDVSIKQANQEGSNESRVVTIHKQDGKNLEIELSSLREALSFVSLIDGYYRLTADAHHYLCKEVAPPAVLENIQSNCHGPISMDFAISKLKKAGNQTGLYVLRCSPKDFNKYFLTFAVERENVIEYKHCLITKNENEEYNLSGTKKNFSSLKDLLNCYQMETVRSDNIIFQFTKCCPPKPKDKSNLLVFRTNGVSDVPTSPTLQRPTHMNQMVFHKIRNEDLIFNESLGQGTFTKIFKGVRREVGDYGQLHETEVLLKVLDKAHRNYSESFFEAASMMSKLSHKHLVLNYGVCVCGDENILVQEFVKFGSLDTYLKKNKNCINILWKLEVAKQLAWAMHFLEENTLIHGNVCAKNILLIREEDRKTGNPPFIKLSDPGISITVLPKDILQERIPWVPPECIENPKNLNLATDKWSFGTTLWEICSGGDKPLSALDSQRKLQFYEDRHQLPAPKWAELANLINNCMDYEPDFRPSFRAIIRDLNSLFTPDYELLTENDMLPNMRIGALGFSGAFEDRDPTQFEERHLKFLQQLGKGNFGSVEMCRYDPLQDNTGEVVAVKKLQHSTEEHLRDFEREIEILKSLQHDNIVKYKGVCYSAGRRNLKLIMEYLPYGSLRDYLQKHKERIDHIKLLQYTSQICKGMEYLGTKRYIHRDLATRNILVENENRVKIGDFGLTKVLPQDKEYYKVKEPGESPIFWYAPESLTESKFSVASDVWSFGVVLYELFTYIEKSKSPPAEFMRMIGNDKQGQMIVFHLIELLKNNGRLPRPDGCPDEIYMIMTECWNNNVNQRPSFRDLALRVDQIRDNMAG
Sequence of Plasminogen (P00747 97-580 limits assumed): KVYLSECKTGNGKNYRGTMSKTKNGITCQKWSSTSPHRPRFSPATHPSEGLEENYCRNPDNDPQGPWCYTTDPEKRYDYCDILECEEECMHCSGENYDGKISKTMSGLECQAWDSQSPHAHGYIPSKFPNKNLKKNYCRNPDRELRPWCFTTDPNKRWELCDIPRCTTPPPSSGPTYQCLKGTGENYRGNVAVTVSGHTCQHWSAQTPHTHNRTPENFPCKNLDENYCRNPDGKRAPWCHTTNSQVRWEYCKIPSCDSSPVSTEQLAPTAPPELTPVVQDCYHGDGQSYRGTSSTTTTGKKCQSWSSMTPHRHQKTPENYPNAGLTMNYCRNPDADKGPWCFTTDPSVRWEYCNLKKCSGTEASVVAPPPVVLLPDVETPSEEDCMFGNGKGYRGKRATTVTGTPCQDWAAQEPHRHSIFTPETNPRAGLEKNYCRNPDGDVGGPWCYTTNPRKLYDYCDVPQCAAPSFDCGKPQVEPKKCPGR
Sequence of Plasminogen (P00747 581-810 limits assumed): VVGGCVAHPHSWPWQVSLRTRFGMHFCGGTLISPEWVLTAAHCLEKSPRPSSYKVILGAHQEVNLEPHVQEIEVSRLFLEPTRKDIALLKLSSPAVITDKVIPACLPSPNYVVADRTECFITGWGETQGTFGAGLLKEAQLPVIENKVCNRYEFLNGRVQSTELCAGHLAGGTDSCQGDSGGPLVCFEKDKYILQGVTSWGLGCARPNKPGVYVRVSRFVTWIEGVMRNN

Structure (SMILES): COc1ccc(CC[C@@H](OC(=O)[C@@H]2CCCCN2C(=O)[C@H](c2cc(OC)c(OC)c(OC)c2)C2CCCCC2)c2cccc(OCC(=O)O)c2)cc1OC
Ki [2]: > 50000 nM

Structure (SMILES): COc1ccc(CC[C@@H](OC(=O)[C@@H]2CCCCN2C(=O)[C@H](c2cc(OC)c(OC)c(OC)c2)C2CCCCC2)c2cccc(OCCN3CCOCC3)c2)cc1OC
Ki [2]: > 50000 nM

Structure (SMILES): COc1cccc([C@@H](CCc2ccc(OC)c(OC)c2)OC(=O)[C@@H]2CCCCN2C(=O)[C@H](c2cc(OC)c(OC)c(OC)c2)C2CCCCC2)c1
Kd [3]: > 10000 nM

Structure (SMILES): O=C1NCc2ccccc2-c2cc(c(F)cc2F)NS(=O)(=O)c2cc1cc(Cl)c2O
CLint scaled (in vitro): 3.27 mL/min/kg

Structure (SMILES): Cc1cnc2nc1Nc1cccc(c1)COC/C=C/COCc1cc(ccc1OCCN1CCCC1)N2
IC50 [6]: 6 nM
IC50 (HEL): 3060 nM
IC50 (SET-2): 11100 nM

Structure (SMILES): N=C(N)c1ccc(CNC(=O)[C@H](Cc2cccc(C(=N)N)c2)NC(=O)[C@@H](CCCc2ccccc2)NS(=O)(=O)Cc2cccc(C(=O)O)c2)cc1
Ki (Plasminogen): 0.81 nM
Ki (Prothrombin): 667 nM

Results, then the compound that gave them:

Kd [1]: 300 nM
Structure (SMILES): COc1ccc2nc3cc(Cl)ccc3c(NCCCCNc3nc(N)nc(N)n3)c2c1

IC50 (ATP-citrate synthase [4]): 44 nM
Kd (ATP-citrate synthase [5]): 128 nM
CLint scaled (in vitro): 372 mL/min/kg
Structure (SMILES): COC(=O)c1cc(Cl)c(O)c(S(=O)(=O)Nc2cc(-c3ccccc3)c(F)cc2F)c1

IC50 [7]: 10 nM
Structure (SMILES): Cc1cc(C[C@@H](NC(=O)c2cnc3c(c2)C[C@@]2(C3)C(=O)Nc3ncccc32)C(=O)N(C)C)cc2cn[nH]c12
